pKi: −log10 of the molar value. Like-named read-outs stand apart in the source and are kept apart here.
Experiments:
[1] = molecular target: T1, L-amino acid oxidase from Rhodococcus opacus (Rhodococcus opacus, UniProt Q8VPD4); test: Transformation of D,L-amino acid with L-amino acid oxidase, HPLC analysis of L- and D-form; type: biochemical; details: for concentration of the D-form during the reaction: 7 mM D,L-amino acid
T1 construct: made in house; host or cells: Rhodococcus opacus DSM 43250, the natural producer; purified from crude cell extract, not recombinant
Description: […] The total volume of the batch was 1 mL. Samples (50 μL) were taken at regular intervals, and analyzed for the content of L- and D-phenylalanine, using HPLC. Directly after being taken, the samples were heated to 95° C. for 3 min, and then the precipitated protein was centrifuged off. 20 μL of the diluted top fraction were put into 180 μL 100 mM sodium borate buffer, pH 10.4, and mixed with 20 μL of a derivativization reagent (260 mM isobuturyl-L-cysteine (IBLC) and 170 mM ophthaldialdehyde (OPA) in 100 mM sodium borate buffer, pH 10.4).
Separation conditions of HPLC:
Column: RP-18, 250×4 mm, 5 Am, Kromasil (Phenomenex, Aschaffenburg, Germany)
Detection: fluorescence, Ex. 340 nm, Em. 440 nm
Flow agent A: 23 mM sodium acetate buffer; pH 6.5 adjusted with acetic acid
Flow agent B: acetonitrile:water (10:1.5)

[2] = molecular target: T1, L-amino acid oxidase from Rhodococcus opacus; test: Substrate spectrum and stereospecificity of L-amino acid oxidase; type: biochemical; details: relative to 10 mM L-alanine
Description: The transformation of a large number of natural and non-natural amino acids was investigated. The following test batch (1 mL) was used for this purpose: 10 mM enantiomer-pure amino acid (or 20 mM D,L-amino acid); 0.2 M TEA-HCl buffer, pH 7.6; 0.2 mg/mL odianisidine; 10 U/mL POX; L-amino acid oxidase solution in limiting amounts. The activity measurements were carried out by photometry at 436 nm and 30° C.
The stereospecificity of the L-amino acid oxidase was measured for several substrates (e.g. alanine, asparagine, glutamine, phenylalanine, methionine, leucine, ornithine, lysine, histidine), in that both the D-form and the L-form, as well as the racemate were used. In this connection, D-amino acids are not transformed in any case. The activities with the racemates were as high, for all the substrates, as for the pure L-amino acids in each instance. […] In the determination of the substrate spectrum, it is therefore also possible to use the D,L-form.
The measured activity values were indicated as relative values with reference to the activity with 10 mM L-alanine (Table 4). Weak activity was indicated with a + in the table.

[3] = molecular target: T1, L-amino acid oxidase from Rhodococcus opacus; test: biochemical
Description: To determine the kinetic constants, the reaction speed of oxidation was studied at different concentrations of amino acid and for different L-amino acids, under the following conditions (tests in microtiter plates):
0.2 M TEA-HCl buffer, pH 7.6; 0.2 mg/mL o-dianisidine; 25 U/mL POX; L-amino acid oxidase in limiting amounts; varying concentrations of the different L-amino acids. Activity measurement was conducted by photometry at 450 nm and 30° C.
The kinetic constants Vmax.

[4] = 10 mM enantiomer-pure amino acid, pH 7.6, 30° C., 436 nm
[5] = 0.2 M TEA-HCl buffer, pH 7.6, 30° C., constant of the amino acid as substrate, read-out: Ki
[6] = marked #: used in racemic form (20 mM D,L-amino acid)
[7] = marked *: poor solubility, 100 μL top fraction of saturated L-amino acid solution per batch

T1 sequence (Q8VPD4 46-534): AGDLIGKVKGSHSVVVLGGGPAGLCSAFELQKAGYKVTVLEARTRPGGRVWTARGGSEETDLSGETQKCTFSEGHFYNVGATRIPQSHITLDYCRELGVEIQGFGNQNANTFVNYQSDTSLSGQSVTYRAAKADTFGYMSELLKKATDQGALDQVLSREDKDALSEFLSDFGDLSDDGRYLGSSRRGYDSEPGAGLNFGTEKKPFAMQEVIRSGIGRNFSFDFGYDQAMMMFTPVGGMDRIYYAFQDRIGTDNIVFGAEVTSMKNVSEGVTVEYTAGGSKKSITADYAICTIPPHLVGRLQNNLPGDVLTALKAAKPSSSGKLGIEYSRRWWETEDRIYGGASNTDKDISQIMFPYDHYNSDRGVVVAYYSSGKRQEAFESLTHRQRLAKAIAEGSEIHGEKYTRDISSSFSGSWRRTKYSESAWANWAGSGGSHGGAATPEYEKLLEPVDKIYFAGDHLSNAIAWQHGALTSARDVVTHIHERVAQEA

| SMILES | Rel. activity (%) [2, 4] | also measured |
| --- | --- | --- |
| N[C@H](Cc1ccccc1)C(=O)O [D-phenylalanine] |  | concentration of the D-form during the reaction ([1]; 35 μg/mL enzyme, pH 7.6): remains constant; ee value ([1]; after a reaction time of 30 min): ≥ 99.2%; ee value ([1]; after a reaction time of 180 min): ≥ 99.5% |
| NC1CCOC1=O (stereo not drawn) [2-amino-4-butyrolactone] | 66% |  |
| N[C@@H](Cc1ccc(Cl)cc1)C(=O)O (racemic) [4-chlorophenylalanine] | 9% |  |
| NC(=O)NCCC[C@H](N)C(=O)O [Citrulline] | 74% | pKi [3, 5]: 1.69 |
| N=C(N)NCCC[C@H](N)C(=O)O [Arginine] | 70% | pKi [3]: 2.27 |
| COC[C@H](N)C(=O)O (racemic) [O-methyl serine] |  | Rel. activity (%) [2, 6]: 99% |
| C[C@H](N)C(=O)O [Alanine, L-alanine] | 100% |  |
| N[C@@H](Cc1ccc(F)cc1)C(=O)O (racemic) [4-fluorophenylalanine] |  | Rel. activity (%) [2, 6]: 25% |
| CC(C)(C)CCC(N)C(=O)O (stereo not drawn) [2-amino-5,5-dimethyl hexanic acid] | 44% |  |
| N[C@@H](Cc1ccc([N+](=O)[O-])cc1)C(=O)O [4-nitrophenylalanine] |  | Rel. activity (%) [2, 7]: 30% |
| NCC(N)C(=O)O (stereo not drawn) [2.3-diaminopropionic acid] | 71% |  |
| CC(C)[C@H](N)C(=O)O [Valine, L-valine] | 32% |  |
| N[C@H](C(=O)O)C(O)c1ccccc1 (mixture of isomers) [β-Phenyl serine] |  | Rel. activity (%) [2, 6]: 8% |
| CC(C)C[C@H](N)C(=O)O [Leucine, L-leucine] | 68% | transformation of the L-form ([1]; 7 mM D,L-leucine, during the first 20 min): almost completely transformed; pKi [3, 5]: 2.24 |
| NCCC(N)C(=O)O (stereo not drawn) [2.4-diaminobutyric acid] | 100% |  |
| N[C@@H](Cc1c[nH]c2ccccc12)C(=O)O [Tryptophan] | 12% |  |
| NC1CCSC1=O (stereo not drawn) [Homocysteine thiolactone] | 23% |  |
| N[C@@H](Cc1cccc2ccccc12)C(=O)O [3-(1-naphthyl)alanine] |  | Rel. activity (%) [2, 7]: 109% |

| SMILES | Rel. activity (%) [2, 4] | also measured |
| --- | --- | --- |
| CCCC[C@H](N)C(=O)O (racemic) [Norleucine] |  | Rel. activity (%) [2, 6]: 73% |
| CSCC[C@H](N)C(=O)O [Methionine] | 72% | pKi [3]: 2.16; Vmax (U/mg) ([3]; 0.2 M TEA-HCl buffer, pH 7.6, 30° C.): 6.43 U/mg |
| NCCC[C@H](N)C(=O)O [Ornithine] | 117% | pKi [3]: 1.90 |
| CC[C@H](C)[C@H](N)C(=O)O [Isoleucine] | 45% |  |
| CC(=O)NCCCC[C@H](N)C(=O)O [Nε-acetyllysine] | 46% |  |
| Nc1ccc(C[C@H](N)C(=O)O)cc1 [4-aminophenylalanine] | 16% |  |
| CC(C)C[C@@H](N)C(=O)O [D-leucine] |  | concentration of the D-form during the reaction ([1]; 35 μg/mL enzyme, pH 7.6): remains constant; ee value ([1]; after a reaction time of 20 min): ≥ 99.2% |
| NC(=O)CC[C@H](N)C(=O)O [Glutamine] | 52% |  |
| NCCCC[C@H](N)C(=O)O [Lysine, L-lysine] | 55% | pKi [3]: 1.20 |
| N[C@@H](CCc1ccccc1)C(=O)O (racemic) [Homophenylalanine] |  | Rel. activity (%) ([2]; marked *#: racemic form, low concentration (top fraction of saturated solution)): 50% |
| N[C@@H](Cc1ccccc1Cl)C(=O)O [2-chlorophenylalanine] | 24% |  |
| N[C@@H](CSSC[C@H](N)C(=O)O)C(=O)O [Cystine] |  | Rel. activity (%) [2, 7]: 104% |
| N[C@@H](CO)C(=O)O [Serine] | 72% |  |
| NC(=O)C[C@H](N)C(=O)O [Asparagine] | 97% |  |
| N[C@@H](Cc1c[nH]cn1)C(=O)O [Histidine] | 36% |  |
| N[C@@H](Cc1ccccc1)C(=O)O [Phenylalanine, L-phenylalanine] | 53% | concentration in the course of the reaction ([1]; 7 mM D,L-phenylalanine, 35 μg/mL enzyme, pH 7.6, originally 3.5 mM): < 0.01 mM; pKi [3, 5]: 2.28 |
| N[C@@H](Cc1ccc(O)cc1)C(=O)O [Tyrosine] |  | Rel. activity (%) [2, 7]: 54% |
